In patent US8557848B2, “4,5-ring annulated indole derivatives for treating or preventing of HCV and related viral infections” (Merck Sharp & Dohme Corp., priority 2006, dated 2013):
Where two headings read alike, the source gives them in different places.

Assays:
[1] = target: T1, HCV NS5B polymerase (NS5BΔCT21, from HCV-Con 1 isolate, genotype 1b) (Hepatitis C virus genotype 1b, UniProt Q9WMX2); assay: HCV NS5B Polymerase Inhibition Assay; assay type: biochemical
T1 construct: A soluble C-terminal 21-amino acid truncated NS5B enzyme form; polyhistidine (C); made in house; host or cells: Escherichia coli
Procedure, shortened: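 His-tagged NS5BΔCT21 (30 or 150 nM) with 0.03 μM DCoH75 RNA template, 0.25 mM GAU, 0.1 μM ATP/GTP/UTP, 0.026 μM CTP plus [^33P]-CTP, pH 7.3, 2% DMSO; 2 h at 22° C. Incorporated radioactivity counted after filter capture. IC50 from 10-point 2-fold dilutions (top 200 μM to 1 μM) fitted to Hill equation.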

[2] = tested on: HCV replicon cells (replicon RNA level); assay: Cell-Based HCV Replicon Assay; settings: Hepatitis C virus, 72 h; replicon RNA level by real time PCR (Taqman), cells harvested on day 3; read-out: EC50
Procedure, shortened: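 Replicon cells at 5000/well received 10 serial 2-fold compound dilutions in 0.5% DMSO, 5% FBS, harvested day 3. Replicon RNA quantified by multiplex Taqman RT-PCR on NS5B versus GAPDH; EC50 and EC90 taken at ΔCT = 1 and 3.2 above baseline from sigmoid fits.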

[3] = NS5B polymerase inhibition, [33P]-CTP incorporation, 22° C. for 2 hours, read-out: IC50

| SMILES | IC50 [1, 3] | EC50 [2] | IC50 [1] |
| --- | --- | --- | --- |
| COc1ccc2cc(Cn3c(C(=O)O)c(-c4ccc[nH]c4=O)c4c5occc5c(F)cc43)c(Cl)nc2c1 [Compound 153] | < 25 nM | < 500 nM | – |
| COc1ccc2nc(Cl)c(Cn3c(C(=O)O)c(-c4ccc[nH]c4=O)c4c5occc5c(F)cc43)cc2c1 [Compound 154] | < 25 nM | < 500 nM | – |
| Cc1cccc(Cn2c(C(=O)NS(=O)(=O)C3CC3)c(-c3ccc[nH]c3=O)c3c4occc4ccc32)c1F [Compound 155] | < 25 nM | < 500 nM | – |
| CC(C)n1ncc2cc(Cn3c(C(=O)O)c(-c4ccc[nH]c4=O)c4c5occc5c(F)cc43)c(Cl)nc21 [Compound 156] | < 25 nM | 500 to 1500 nM | – |
| Cc1cccc(Cn2c(C(=O)NS(=O)(=O)C(C)C)c(-c3ccc[nH]c3=O)c3c4occc4ccc32)c1F [Compound 158] | < 25 nM | 500 to 1500 nM | – |
| O=C(O)c1c(-c2ccc[nH]c2=O)c2c3occ(Cl)c3c(F)cc2n1Cc1cc2ccccc2nc1Cl [Compound 159] | < 25 nM | < 500 nM | – |
| CS(=O)(=O)NC(=O)c1c(-c2ccc[nH]c2=O)c2c3occc3ccc2n1Cc1cc(C(N)=O)ccc1F [Compound 161] | < 25 nM | < 500 nM | – |
| O=C(NS(=O)(=O)C1CC1)c1c(-c2ccc[nH]c2=O)c2c3occc3c(F)cc2n1Cc1ccccc1F [Compound 162] | < 25 nM | < 500 nM | – |
| CC(C)S(=O)(=O)NC(=O)c1c(-c2ccc[nH]c2=O)c2c3occc3c(F)cc2n1Cc1ccccc1F [Compound 163] | < 25 nM | < 500 nM | – |
| O=C(NS(=O)(=O)C1CC1)c1c(-c2ccc[nH]c2=O)c2c3c(ccc2n1Cc1cc(F)ccc1F)CCO3 [Compound 164] | < 25 nM | < 500 nM | – |
| CS(=O)(=O)NC(=O)c1c(-c2ccc[nH]c2=O)c2c3occc3c(F)cc2n1Cc1csc(C(N)=O)c1 [Compound 165] | < 25 nM | < 500 nM | – |
| CS(=O)(=O)NC(=O)c1c(-c2ccc[nH]c2=O)c2c3c(c(F)cc2n1Cc1csc(C(N)=O)c1)CCO3 [Compound 167] | < 25 nM | < 500 nM | – |
| CSc1ccc2cc(Cn3c(C(=O)O)c(-c4ccc[nH]c4=O)c4c5occc5c(F)cc43)c(Cl)nc2c1 [Compound 168] | < 25 nM | < 500 nM | – |
| CS(=O)(=O)NC(=O)c1c(-c2ccc[nH]c2=O)c2c3occc3c(F)cc2n1Cc1ccc2[nH]c(N)nc2c1 [Compound 169] | < 25 nM | < 500 nM | – |
| CS(=O)(=O)NC(=O)c1c(-c2ccc[nH]c2=O)c2c3occc3c(F)cc2n1Cc1ccc2onc(N)c2c1 [Compound 170] | < 25 nM | < 500 nM | – |
| Cc1cccc(Cn2c(C(=O)NS(=O)(=O)C3CC3)c(-c3ccc[nH]c3=O)c3c4occc4c(F)cc32)c1F [Compound 171] | < 25 nM | < 500 nM | – |
| C[C@@H]1COc2c1ccc1c2c(-c2ccc[nH]c2=O)c(C(=O)NS(=O)(=O)C2CC2)n1Cc1cc(F)ccc1F [Compound 173] | < 25 nM | < 500 nM | – |
| O=C(NS(=O)(=O)C1CC1)c1c(-c2ccc[nH]c2=O)c2c3occc3c(F)cc2n1Cc1cc(=O)[nH]cc1F [Compound 174] | < 25 nM | < 500 nM | – |
| CS(=O)(=O)NC(=O)c1c(-c2ccc[nH]c2=O)c2c3occc3c(F)cc2n1Cc1cc(C(N)=O)ccc1F [Compound 175] | < 25 nM | < 500 nM | – |
| O=C(NS(=O)(=O)C1CC1)c1c(-c2ccc[nH]c2=O)c2c3occc3c(F)cc2n1Cc1cc(F)ccc1F [Compound 177] | < 25 nM | < 500 nM | – |
| O=C(NS(=O)(=O)C1CC1)c1c(-c2ccc[nH]c2=O)c2c3occc3cc(F)c2n1Cc1cc(F)ccc1F [Compound 178] | < 25 nM | < 500 nM | – |
| CS(=O)(=O)NC(=O)c1c(-c2ccc[nH]c2=O)c2c3occc3c(F)cc2n1Cc1cc([N+](=O)[O-])ccc1F [Compound 179] | < 25 nM | < 500 nM | – |
| CS(=O)(=O)NC(=O)c1c(-c2ccc[nH]c2=O)c2c3occc3ccc2n1Cc1cc2ccccc2nc1Cl [Compound 180] | < 25 nM | < 500 nM | – |
| CS(=O)(=O)NC(=O)c1c(-c2ccc[nH]c2=O)c2c3occc3c(F)cc2n1Cc1cc2nc[nH]c2cc1Cl [Compound 182] | < 25 nM | < 500 nM | – |
| NC(=O)c1cc(Cn2c(C(=O)NS(=O)(=O)C3CC3)c(-c3ccc[nH]c3=O)c3c4occc4c(F)cc32)cs1 [Compound 183] | < 25 nM | < 500 nM | – |
| O=c1[nH]cccc1-c1c(C2=NS(=O)(=O)c3ccccc3N2)n(Cc2ccccc2F)c2cc(F)c3ccoc3c12 [Compound 184] | < 25 nM | < 500 nM | – |

| SMILES | IC50 [1, 3] | EC50 [2] | IC50 [1] |
| --- | --- | --- | --- |
| NC(=O)c1cc(Cn2c(C(=O)NS(=O)(=O)C3CC3)c(-c3ccc[nH]c3=O)c3c4c(c(F)cc32)CCO4)cs1 [Compound 185] | < 25 nM | < 500 nM | – |
| CC(C)S(=O)(=O)NC(=O)c1c(-c2ccc[nH]c2=O)c2c3occc3c(F)cc2n1Cc1csc(C(N)=O)c1 [Compound 186] | < 25 nM | < 500 nM | – |
| CC(C)S(=O)(=O)NC(=O)c1c(-c2ccc[nH]c2=O)c2c3c(c(F)cc2n1Cc1csc(C(N)=O)c1)CCO3 [Compound 188] | < 25 nM | < 500 nM | – |
| O=C(NS(=O)(=O)C1CC1)c1c(-c2ccc[nH]c2=O)c2c3occc3c(F)cc2n1Cc1ccc2[nH]c(=O)[nH]c2c1 [Compound 190] | < 25 nM | < 500 nM | – |
| COC(=O)c1ccc(F)c(Cn2c(C(=O)NS(=O)(=O)C3CC3)c(-c3ccc[nH]c3=O)c3c4occc4ccc32)c1 [Compound 192] | < 25 nM | < 500 nM | – |
| CS(=O)(=O)NC(=O)c1c(-c2ccc[nH]c2=O)c2c3occc3c(F)cc2n1Cc1cc(Cl)nc2ccccc12 [Compound 193] | < 25 nM | 500 to 1500 nM | – |
| CS(=O)(=O)NC(=O)c1c(-c2ccc[nH]c2=O)c2c3occc3c(F)cc2n1Cc1cc2ccccc2nc1Cl [Compound 194] | < 25 nM | < 500 nM | – |
| NC(=O)c1ccc(F)c(Cn2c(C(=O)NS(=O)(=O)C3CC3)c(-c3ccc[nH]c3=O)c3c4occc4c(F)cc32)c1 [Compound 195] | < 25 nM | < 500 nM | – |
| CS(=O)(=O)NC(=O)c1c(-c2ccc[nH]c2=O)c2c3c(c(F)cc2n1Cc1cc2ccccc2nc1Cl)CCO3 [Compound 196] | < 25 nM | < 500 nM | – |
| NC(=O)c1cnc(F)c(Cn2c(C(=O)NS(=O)(=O)C3CC3)c(-c3ccc[nH]c3=O)c3c4occc4c(F)cc32)c1 [Compound 197] | < 25 nM | < 500 nM | – |
| O=C(NS(=O)(=O)C1CC1)c1c(-c2ccc[nH]c2=O)c2c3occc3c(F)cc2n1Cc1cc([N+](=O)[O-])ccc1F [Compound 198] | < 25 nM | < 500 nM | – |
| CC(C)S(=O)(=O)NC(=O)c1c(-c2ccc[nH]c2=O)c2c3occc3c(F)cc2n1Cc1cc(C(N)=O)ccc1F [Compound 199] | < 25 nM | < 500 nM | – |
| NC(=O)c1cnc(F)c(Cn2c(C(=O)NS(=O)(=O)C3CC3)c(-c3ccc[nH]c3=O)c3c4c(c(F)cc32)CCO4)c1 [Compound 200] | < 25 nM | < 500 nM | – |
| O=C(NS(=O)(=O)C1CC1)c1c(-c2ccc[nH]c2=O)c2c3occc3ccc2n1Cc1cc2ccccc2nc1Cl [Compound 201] | < 25 nM | < 500 nM | – |
| Nc1ccccc1S(=O)(=O)NC(=O)c1c(-c2ccc[nH]c2=O)c2c3occc3c(F)cc2n1Cc1ccccc1F [Compound 202] | < 25 nM | < 500 nM | – |
| CN(C)S(=O)(=O)NC(=O)c1c(-c2ccc[nH]c2=O)c2c3occc3ccc2n1Cc1cc2ccccc2nc1Cl [Compound 204] | < 25 nM | < 500 nM | – |
| O=C(NS(=O)(=O)C1CC1)c1c(-c2ccc[nH]c2=O)c2c3occc3c(F)cc2n1Cc1cc2nc[nH]c2cc1Cl [Compound 205] | < 25 nM | < 500 nM | – |
| CS(=O)(=O)NC(=O)c1c(-c2ccc[nH]c2=O)c2c3occc3c(F)cc2n1Cc1cc(C(=O)NC2CC2)ccc1F [Compound 206] | < 25 nM | 500 to 1500 nM | – |
| O=C(NS(=O)(=O)C1CC1)c1c(-c2ccc[nH]c2=O)c2c3occc3c(F)cc2n1Cc1cc(C(O)CO)ccc1F (stereo not drawn) [Compound 207] | < 25 nM | < 500 nM | – |
| CS(=O)(=O)NC(=O)c1c(-c2ccc[nH]c2=O)c2c3occc3c(F)cc2n1Cc1ccc2[nH]c(C(F)(F)F)nc2c1 [Compound 208] | < 25 nM | < 500 nM | – |
| O=C(NS(=O)(=O)C1CC1)c1c(-c2ccc[nH]c2=O)c2c3ncsc3ccc2n1Cc1cc2ccccc2nc1Cl [Compound 209] | < 25 nM | < 500 nM | – |
| O=C(NS(=O)(=O)C1CC1)c1c(-c2ccc[nH]c2=O)c2c3occc3c(F)cc2n1Cc1cc(Cl)nc2ccccc12 [Compound 210] | < 25 nM | 500 to 1500 nM | – |
| O=C(NS(=O)(=O)C1CC1)c1c(-c2ccc[nH]c2=O)c2c3occc3c(F)cc2n1Cc1cc2ccccc2nc1Cl [Compound 211] | < 25 nM | < 500 nM | – |
| O=C(NS(=O)(=O)C1CC1)c1c(-c2ccc[nH]c2=O)c2c3occc3c(F)cc2n1Cc1cc2c(=O)[nH]cnc2cc1F [Compound 212] | – | < 500 nM | < 25 nM |
| CCCS(=O)(=O)NC(=O)c1c(-c2ccc[nH]c2=O)c2c3occc3c(F)cc2n1Cc1cc2ccccc2nc1Cl [Compound 213] | < 25 nM | < 500 nM | – |
